Measured values: the supplement of paper PMC10307832

What was measured:
Experiment in all cases: relative viability (nuclei count vs DMSO), 5 days (fraction); higher = more cells survive
[1] = compound: Nc1ccn([C@@H]2O[C@H](CO)[C@@H](O)C2(F)F)c(=O)n1 [Gemcitabine] + CC(=O)c1c(C)c2cnc(Nc3ccc(N4CCNCC4)cn3)nc2n(C2CCCC2)c1=O [Palbociclib] (partner 0.5 µM)
Procedure, shortened: (§1)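 After 5 days of treatment, lung cancer cells in 1536-well plates were fixed and stained in a single step (final 0.05% Triton X-100, 1% formaldehyde, 1 ug/ml Hoechst) and their nuclei counted on 4× images. Treatment had been applied by pin tool the day after seeding as one drug alone or as a fixed anchor-drug dose with five library-drug doses (not always all listed) in √10 steps. Relative viability is the nuclei count of treated wells divided by that of vehicle wells, and values are medians of duplicate plates.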

[2] = compound: Nc1ccn([C@@H]2O[C@H](CO)[C@@H](O)C2(F)F)c(=O)n1 [Gemcitabine] + Cc1nc(NC(=O)N2CCC[C@H]2C(N)=O)sc1-c1ccnc(C(C)(C)C(F)(F)F)c1 [Alpelisib] (partner 2 µM)
Procedure, shortened: as §1

[3] = compound: Nc1ccn([C@@H]2O[C@H](CO)[C@@H](O)C2(F)F)c(=O)n1 [Gemcitabine] + Nc1nc2[nH]cc(CCc3ccc(C(=O)N[C@@H](CCC(=O)O)C(=O)O)cc3)c2c(=O)[nH]1 [Pemetrexed] (partner 0.2 µM)
Procedure, shortened: as §1

[4] = compound: Nc1ccn([C@@H]2O[C@H](CO)[C@@H](O)C2(F)F)c(=O)n1 [Gemcitabine] + O=C(c1cc(Cc2n[nH]c(=O)c3ccccc23)ccc1F)N1CCN(C(=O)C2CC2)CC1 [Olaparib] (partner 8 µM)
Procedure, shortened: as §1

NCI-H2405
relative viability ([1]; first compound 0.001 µM): 0.527
relative viability ([1]; first compound 0.003162 µM): 0.483
relative viability ([1]; first compound 0.01 µM): 0.422
relative viability ([1]; first compound 0.03162 µM): 0.203
relative viability ([1]; first compound 0.1 µM): 0.188
relative viability ([2]; first compound 0.001 µM): 0.753
relative viability ([2]; first compound 0.003162 µM): 0.588
relative viability ([2]; first compound 0.01 µM): 0.287
relative viability ([2]; first compound 0.03162 µM): 0.196
relative viability ([2]; first compound 0.1 µM): 0.179
relative viability ([3]; first compound 0.001 µM): 1
relative viability ([3]; first compound 0.003162 µM): 0.91
relative viability ([3]; first compound 0.01 µM): 0.552
relative viability ([3]; first compound 0.03162 µM): 0.228
relative viability ([3]; first compound 0.1 µM): 0.184
relative viability ([4]; first compound 0.001 µM): 0.842
relative viability ([4]; first compound 0.003162 µM): 0.766
relative viability ([4]; first compound 0.01 µM): 0.361
relative viability ([4]; first compound 0.03162 µM): 0.23
relative viability ([4]; first compound 0.1 µM): 0.179

NCI-H3122
relative viability ([1]; first compound 0.001 µM): 0.195
relative viability ([1]; first compound 0.003162 µM): 0.177
relative viability ([1]; first compound 0.01 µM): 0.175
relative viability ([1]; first compound 0.03162 µM): 0.119
relative viability ([1]; first compound 0.1 µM): 0.148
relative viability ([2]; first compound 0.001 µM): 0.824
relative viability ([2]; first compound 0.003162 µM): 0.774
relative viability ([2]; first compound 0.01 µM): 0.627
relative viability ([2]; first compound 0.03162 µM): 0.234
relative viability ([2]; first compound 0.1 µM): 0.165
relative viability ([3]; first compound 0.001 µM): 0.196
relative viability ([3]; first compound 0.003162 µM): 0.206
relative viability ([3]; first compound 0.01 µM): 0.191
relative viability ([3]; first compound 0.03162 µM): 0.138
relative viability ([3]; first compound 0.1 µM): 0.105
relative viability ([4]; first compound 0.001 µM): 0.622
relative viability ([4]; first compound 0.003162 µM): 0.625
relative viability ([4]; first compound 0.01 µM): 0.396
relative viability ([4]; first compound 0.03162 µM): 0.136
relative viability ([4]; first compound 0.1 µM): 0.107

PC-3 [JPC-3]
relative viability ([1]; first compound 0.001 µM): 0.512
relative viability ([1]; first compound 0.003162 µM): 0.472
relative viability ([1]; first compound 0.01 µM): 0.499
relative viability ([1]; first compound 0.03162 µM): 0.471
relative viability ([1]; first compound 0.1 µM): 0.443
relative viability ([2]; first compound 0.001 µM): 1.13
relative viability ([2]; first compound 0.003162 µM): 0.736
relative viability ([2]; first compound 0.01 µM): 0.649
relative viability ([2]; first compound 0.03162 µM): 0.264
relative viability ([2]; first compound 0.1 µM): 0.248
relative viability ([3]; first compound 0.001 µM): 1.23
relative viability ([3]; first compound 0.003162 µM): 0.566
relative viability ([3]; first compound 0.01 µM): 0.434
relative viability ([3]; first compound 0.03162 µM): 0.414
relative viability ([3]; first compound 0.1 µM): 0.31
relative viability ([4]; first compound 0.001 µM): 1.24
relative viability ([4]; first compound 0.003162 µM): 0.614
relative viability ([4]; first compound 0.01 µM): 0.49
relative viability ([4]; first compound 0.03162 µM): 0.478
relative viability ([4]; first compound 0.1 µM): 0.349

PC-14
relative viability ([1]; first compound 0.001 µM): 0.547
relative viability ([1]; first compound 0.003162 µM): 0.2
relative viability ([1]; first compound 0.01 µM): 0.0649
relative viability ([1]; first compound 0.03162 µM): 0.0528
relative viability ([1]; first compound 0.1 µM): 0.0391
relative viability ([2]; first compound 0.001 µM): 1.02
relative viability ([2]; first compound 0.003162 µM): 0.688
relative viability ([2]; first compound 0.01 µM): 0.468
relative viability ([2]; first compound 0.03162 µM): 0.0826
relative viability ([2]; first compound 0.1 µM): 0.0459
relative viability ([3]; first compound 0.001 µM): 0.132
relative viability ([3]; first compound 0.003162 µM): 0.168
relative viability ([3]; first compound 0.01 µM): 0.0563
relative viability ([3]; first compound 0.03162 µM): 0.0461
relative viability ([3]; first compound 0.1 µM): 0.0413
relative viability ([4]; first compound 0.001 µM): 0.256
relative viability ([4]; first compound 0.003162 µM): 0.13
relative viability ([4]; first compound 0.01 µM): 0.0358
relative viability ([4]; first compound 0.03162 µM): 0.0472
relative viability ([4]; first compound 0.1 µM): 0.0357
